Results reported in the supplement of paper PMC12317010.

Assay: collision cross section in nitrogen (drift tube, single-field); higher = larger gas-phase ion size
[1] = ion type: [M-H], ion source: ESI, ion mode: Negative
[2] = ion type: [M+H], ion source: APCI, ion mode: Positive
[3] = ion type: [M+H], ion source: ESI, ion mode: Positive
[4] = ion type: [M+Na], ion source: ESI, ion mode: Positive
[5] = ion type: [M+], ion source: APCI, ion mode: Positive
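Note: chemical standards at 10 µM analysed by drift tube IMS-QTOF MS in about 3.95 torr nitrogen, mean of duplicate injections differing ≤1%, mass error below 10 ppm.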

In the case of `N#Cc1ccc(O)cc1` [4-Hydroxybenzonitrile], the “collision cross section in nitrogen” value [1] is reported as 118.1 Å².
In the case of `O=C(Oc1ccc(O)cc1)c1ccccc1` [4-Hydroxyphenyl benzoate], the “collision cross section in nitrogen” value [1] is reported as 154.7 Å².
With `CCC(=C(c1ccc(O)cc1)c1ccc(OCCN(C)C)cc1)c1ccccc1` [4-Hydroxytamoxifen] the “collision cross section in nitrogen” value [2] was 201 Å², the “collision cross section in nitrogen” value [3] was 200.9 Å² and the “collision cross section in nitrogen” value [4] was 196.9 Å². For the same molecule, the “collision cross section in nitrogen” value [1] was 214.6 Å².
For `Oc1ccc(I)cc1` [4-Iodophenol], the “collision cross section in nitrogen” value [1] was 124.5 Å².
For `CC(C)c1ccc(S(=O)(=O)O)cc1` [4-Isopropylbenzenesulfonic acid], the “collision cross section in nitrogen” value [1] was 147.7 Å².
With `CC(C)c1ccc(O)cc1` [4-Isopropylphenol] the “collision cross section in nitrogen” value [1] was 134.1 Å².
With `COc1ccc(Nc2ccccc2)c(C)c1` [4-Methoxy-2-methyl-N-phenylaniline] the “collision cross section in nitrogen” value [2] was 150.5 Å², the “collision cross section in nitrogen” value [3] was 150.5 Å² and the “collision cross section in nitrogen” value [5] was 148.1 Å².
With `COc1ccc(N)c(C)c1` [4-Methoxy-2-methylaniline] the “collision cross section in nitrogen” value [2] was 124.8 Å² and the “collision cross section in nitrogen” value [3] was 135.7 Å².
In the case of `COc1ccc(N)cc1` [4-Methoxybenzenamine], the “collision cross section in nitrogen” value [2] is reported as 120.3 Å² and the “collision cross section in nitrogen” value [3] is reported as 133.2 Å².
With `COc1ccc(O)cc1` [4-Methoxyphenol] the “collision cross section in nitrogen” value [5] was 123.7 Å².
For `COc1ccc(CC#N)cc1` [4-Methoxyphenylacetonitrile], the “collision cross section in nitrogen” value [2] was 127.3 Å².
For `CC1CN(c2ccccc2)NC1=O` (centres undefined) [4-Methyl-1-phenylpyrazolidin-3-one], the “collision cross section in nitrogen” value [5] was 138 Å².
With `Cc1ccc(N)c([N+](=O)[O-])c1` [4-Methyl-2-nitroaniline] the “collision cross section in nitrogen” value [1] was 127.7 Å².
With `Cc1ccc(S(=O)(=O)O)cc1` [4-Methylbenzenesulfonic acid hydrate] the “collision cross section in nitrogen” value [1] was 134.4 Å².
In the case of `Cc1ccnc(N)c1` [4-Methylpyridin-2-amine], the “collision cross section in nitrogen” value [2] is reported as 118.1 Å² and the “collision cross section in nitrogen” value [3] is reported as 119.5 Å².
For `Cc1cc(=O)oc2cc(O)ccc12` [4-Methylumbelliferone hydrate], the “collision cross section in nitrogen” value [3] was 133 Å² and the “collision cross section in nitrogen” value [1] was 133.7 Å².
With `Cc1cc(=O)oc2cc(O)ccc12` [4-Methylumbelliferone] the “collision cross section in nitrogen” value [3] was 132.6 Å² and the “collision cross section in nitrogen” value [1] was 133.3 Å².
With `NCCCN1CCOCC1` [4-Morpholinepropanamine] the “collision cross section in nitrogen” value [2] was 128.3 Å² and the “collision cross section in nitrogen” value [3] was 128.2 Å².
With `O=S(=O)(O)CCCN1CCOCC1` [4-Morpholinepropanesulfonic acid] the “collision cross section in nitrogen” value [2] was 142.7 Å², the “collision cross section in nitrogen” value [3] was 142.4 Å² and the “collision cross section in nitrogen” value [4] was 154.6 Å². The “collision cross section in nitrogen” value [1] was 149.5 Å².
For `Nc1cc([N+](=O)[O-])ccc1C(=O)O` [4-Nitroanthranilic acid], the “collision cross section in nitrogen” value [1] was 133.5 Å².
For `O=[N+]([O-])c1ccc(O)cc1` [4-Nitrophenol], the “collision cross section in nitrogen” value [1] was 120.6 Å².
For `O=[N+]([O-])c1cc[n+]([O-])cc1` [4-Nitropyridine-1-oxide], the “collision cross section in nitrogen” value [1] was 119.2 Å².
In the case of `O=Nc1ccc(Nc2ccccc2)cc1` [4-Nitrosodiphenylamine], the “collision cross section in nitrogen” value [2] is reported as 144.3 Å², the “collision cross section in nitrogen” value [3] is reported as 144.2 Å² and the “collision cross section in nitrogen” value [1] is reported as 144.7 Å².
With `CCCCCCCCCc1ccc(O)cc1` [4-Nonylphenol] the “collision cross section in nitrogen” value [1] was 161.4 Å².
With `CCCCCCCCc1ccc(O)cc1` [4-Octylphenol] the “collision cross section in nitrogen” value [1] was 159.9 Å².
In the case of `CCCCCc1ccc(N)cc1` [4-Pentylaniline], the “collision cross section in nitrogen” value [3] is reported as 156.5 Å².
For `CCCCCc1ccc(O)cc1` [4-Pentylphenol], the “collision cross section in nitrogen” value [1] was 146.9 Å².
With `Oc1ccc(Oc2ccccc2)cc1` [4-Phenoxyphenol] the “collision cross section in nitrogen” value [1] was 145.7 Å².
In the case of `Oc1ccc(-c2ccccc2)cc1` [4-Phenylphenol], the “collision cross section in nitrogen” value [1] is reported as 139.3 Å².
In the case of `Cc1ccc(-c2ccccc2)cc1` [4-Phenyltoluene], the “collision cross section in nitrogen” value [4] is reported as 135.4 Å².
With `CCCc1ccc(O)cc1` [4-Propylphenol] the “collision cross section in nitrogen” value [1] was 134.5 Å².
In the case of `Oc1ccncc1` [4-Pyridinol], the “collision cross section in nitrogen” value [2] is reported as 116 Å², the “collision cross section in nitrogen” value [3] is reported as 116.2 Å² and the “collision cross section in nitrogen” value [1] is reported as 113.9 Å².
For `O=C(O)c1ccc(S(=O)(=O)O)cc1C(=O)O` [4-Sulfophthalic acid], the “collision cross section in nitrogen” value [1] was 145.3 Å².
With `Cc1ccc(S(N)(=O)=O)cc1` [4-Toluenesulfonamide] the “collision cross section in nitrogen” value [1] was 136.3 Å².
In the case of `CC(=O)CCc1ccc(OC(C)=O)cc1` [4-[4-(Acetyloxy)phenyl]-2-butanone], the “collision cross section in nitrogen” value [4] is reported as 146.4 Å².
For `CCN(CC)c1ccc(C=NN(c2ccccc2)c2ccccc2)cc1` [4-[(Diphenylhydrazinylidene)methyl]-N,N-diethylaniline], the “collision cross section in nitrogen” value [2] was 189.8 Å² and the “collision cross section in nitrogen” value [3] was 200.7 Å².
In the case of `CC(C)(C)c1ccc(N)cc1` [4-tert-Butylaniline], the “collision cross section in nitrogen” value [2] is reported as 147.3 Å² and the “collision cross section in nitrogen” value [3] is reported as 147.6 Å².
With `CC(C)(C)c1ccc(O)c(O)c1` [4-tert-Butylcatechol] the “collision cross section in nitrogen” value [1] was 139.3 Å².
In the case of `CC(C)(C)c1ccc(OC(=O)c2ccccc2O)cc1` [4-tert-Butylphenyl salicylate], the “collision cross section in nitrogen” value [1] is reported as 168.4 Å².
With `N#Cc1ccc(CC(=O)c2cccc(C(F)(F)F)c2)cc1` [4-{2-Oxo-2-[3-(trifluoromethyl)phenyl]ethyl}benzonitrile] the “collision cross section in nitrogen” value [1] was 163 Å².
In the case of `O=C1NC(=O)C(c2ccccc2)(c2ccccc2)N1` [5,5-Diphenylhydantoin], the “collision cross section in nitrogen” value [1] is reported as 160 Å².
With `c1cnc2c(n1)CCCC2` [5,6,7,8-Tetrahydroquinoxaline] the “collision cross section in nitrogen” value [2] was 126.6 Å².
In the case of `O=c1cc(-c2ccccc2)oc2ccc3ccccc3c12` [5,6-Benzoflavone], the “collision cross section in nitrogen” value [2] is reported as 160.8 Å², the “collision cross section in nitrogen” value [3] is reported as 160.2 Å² and the “collision cross section in nitrogen” value [4] is reported as 181.8 Å².
In the case of `COc1cc(OC)c2ccc(=O)oc2c1` [5,7-Dimethoxy-2H-chromen-2-one], the “collision cross section in nitrogen” value [2] is reported as 139.1 Å² and the “collision cross section in nitrogen” value [3] is reported as 139.6 Å².
For `O=[N+]([O-])c1ccc(-c2nnc(O)o2)o1` [5-(5-Nitro-2-furyl)-1,3,4-oxadiazole-2-ol], the “collision cross section in nitrogen” value [1] was 135.2 Å².
With `Cc1ccc(N)cc1S(=O)(=O)O` [5-Amino-2-methylbenzenesulfonic acid] the “collision cross section in nitrogen” value [1] was 137.7 Å².
In the case of `Cc1ccc(N)cc1O` [5-Amino-2-methylphenol], the “collision cross section in nitrogen” value [3] is reported as 123.5 Å².
For `Nc1ccc(O)c(C(=O)O)c1` [5-Aminosalicylic acid], the “collision cross section in nitrogen” value [1] was 127.8 Å².
For `S=c1[nH]c2cc(Cl)ccc2s1` [5-Chloro-1,3-benzothiazole-2(3H)-thione], the “collision cross section in nitrogen” value [1] was 133.3 Å².
In the case of `O=C(Nc1ccc([N+](=O)[O-])cc1Cl)c1cc(Cl)ccc1O` [5-Chloro-N-(2-chloro-4-nitrophenyl)-2-hydroxybenzamide], the “collision cross section in nitrogen” value [1] is reported as 164.6 Å².
With `Clc1ccc2[nH]nnc2c1` [5-Chlorobenzotriazole] the “collision cross section in nitrogen” value [3] was 128.5 Å² and the “collision cross section in nitrogen” value [1] was 123.2 Å².
With `O=C(Nc1ccccc1)c1cc(Cl)ccc1O` [5-Chlorosalicylanilide] the “collision cross section in nitrogen” value [1] was 151.9 Å².
With `CCC1(C)NC(=O)NC1=O` (centres undefined) [5-Ethyl-5-methylhydantoin] the “collision cross section in nitrogen” value [1] was 129.7 Å².
With `O=c1[nH]cc(F)c(=O)[nH]1` [5-Fluorouracil] the “collision cross section in nitrogen” value [1] was 115.4 Å².
For `COc1c2ccoc2cc2oc(=O)ccc12` [5-Methoxypsoralen], the “collision cross section in nitrogen” value [2] was 139.3 Å² and the “collision cross section in nitrogen” value [3] was 140.3 Å².
In the case of `Cc1ccc2[nH]nnc2c1` [5-Methyl-1H-benzotriazole], the “collision cross section in nitrogen” value [2] is reported as 125.1 Å², the “collision cross section in nitrogen” value [3] is reported as 124.8 Å² and the “collision cross section in nitrogen” value [1] is reported as 125.2 Å².
With `CC(C)CCCC(=O)O` [5-Methylhexanoic acid] the “collision cross section in nitrogen” value [1] was 136.9 Å².
In the case of `Cc1cccc2nccnc12` [5-Methylquinoxaline], the “collision cross section in nitrogen” value [2] is reported as 126.5 Å².
For `O=[N+]([O-])c1ccc2[nH]c(S)nc2c1` [5-Nitro-2-mercaptobenzimidazole], the “collision cross section in nitrogen” value [1] was 133.6 Å².
For `c1ccc(-c2nnn[nH]2)cc1` [5-Phenyl-1H-tetrazole], the “collision cross section in nitrogen” value [1] was 127.7 Å².
With `CC1CCc2nccnc21` (centres undefined) [6,7-Dihydro-5-methyl-5H-cyclopentapyrazine] the “collision cross section in nitrogen” value [2] was 127.6 Å².
In the case of `CC(C)c1ccc2ncccc2c1` [6-(1-Methylethyl)quinoline], the “collision cross section in nitrogen” value [2] is reported as 138 Å² and the “collision cross section in nitrogen” value [3] is reported as 138.5 Å².
For `Nc1ccc2cc(S(=O)(=O)O)ccc2c1` [6-Aminonaphthalene-2-sulfonic acid], the “collision cross section in nitrogen” value [1] was 150.3 Å².
In the case of `O=c1[nH]c2ccc(Cl)cc2o1` [6-Chloro-2,3-dihydrobenzoxazol-2-one], the “collision cross section in nitrogen” value [1] is reported as 125.6 Å².
With `Cc1cc(O)c(C(C)C)cc1Cl` [6-Chlorothymol] the “collision cross section in nitrogen” value [1] was 140.5 Å².
With `Oc1ccc2cc(SSc3ccc4cc(O)ccc4c3)ccc2c1` [6-Hydroxy-2-naphthyl disulfide] the “collision cross section in nitrogen” value [1] was 185.8 Å².
In the case of `Oc1cccc(O)n1` [6-Hydroxy-2-oxopyridinium chloride], the “collision cross section in nitrogen” value [3] is reported as 120.2 Å² and the “collision cross section in nitrogen” value [1] is reported as 115 Å².
For `COc1ccc2nc(N)sc2c1` [6-Methoxy-2-benzothiazolamine], the “collision cross section in nitrogen” value [2] was 136.6 Å² and the “collision cross section in nitrogen” value [3] was 136.6 Å².
For `Cc1ccc2c(c1)CCCN2` [6-Methyl-1,2,3,4-tetrahydroquinoline], the “collision cross section in nitrogen” value [2] was 134.5 Å² and the “collision cross section in nitrogen” value [3] was 134.8 Å².
With `Cc1cc(=O)[nH]c(=S)[nH]1` [6-Methyl-2-thiouracil] the “collision cross section in nitrogen” value [1] was 123.1 Å².
In the case of `Cc1ccc(O)cn1` [6-Methyl-3-hydroxypyridine], the “collision cross section in nitrogen” value [2] is reported as 118.1 Å², the “collision cross section in nitrogen” value [3] is reported as 119.4 Å² and the “collision cross section in nitrogen” value [1] is reported as 120.4 Å².
